Reference: the NIST ThermoML archive (doi:10.1016/j.jct.2012.07.009)
± gives the expanded uncertainty stated by the source.

Assay: an = ratio of the nth substance listed
Conditions: 298.15 K, 101 kPa, Liquid, Vibrating tube method

`O=C1CNC(=O)CN1` [2,5-diketopiperazine] + O gave a mass density (a1 = 0.0025) of 998.08 ± 0.15 kg/m3, a mass density (a1 = 0.0053) of 998.93 ± 0.15 kg/m3 and a mass density (a1 = 0.0101) of 1000.45 ± 0.15 kg/m3. The mass density (a1 = 0.0134) was 1001.53 ± 0.15 kg/m3 and the mass density (a1 = 0.016) was 1002.32 ± 0.15 kg/m3.
`NCC(=O)O` [2-aminoacetic acid] + O gave a mass density (a1 = 0.1072) of 1039.03 ± 0.16 kg/m3, a mass density (a1 = 0.1494) of 1051.67 ± 0.16 kg/m3 and a mass density (a1 = 0.1778) of 1060.02 ± 0.17 kg/m3. The mass density (a1 = 0.2042) was 1068.38 ± 0.17 kg/m3, the mass density (a1 = 0.2232) was 1074.06 ± 0.17 kg/m3 and the mass density (a1 = 0.2433) was 1080.28 ± 0.17 kg/m3.
With `O=C(O)CNCC(=O)O` [N-(carboxymethyl)glycine] + O the mass density (a1 = 0.1079) was 1027.42 ± 0.16 kg/m3, the mass density (a1 = 0.1403) was 1040.98 ± 0.16 kg/m3 and the mass density (a1 = 0.1768) was 1056.44 ± 0.17 kg/m3. It also gave a mass density (a1 = 0.1982) of 1065.68 ± 0.17 kg/m3, a mass density (a1 = 0.2153) of 1072.61 ± 0.17 kg/m3 and a mass density (a1 = 0.2301) of 1077.43 ± 0.17 kg/m3.
